Legend:
[1] = tested on: canine antrum circular muscles; test: Smooth muscle in vitro model: antral circular muscle strips, acetylcholine-induced contraction; type: cell-based; conditions: test agent 10 μM; acetylcholine 1 μM; organ bath, Krebs solution; n=4-8 strips; FIG. 1
Description: Smooth Muscle in Vitro Model of Gastric Propulsion
Agents which stimulate antral smooth muscle activity would be expected to enhance the rate of gastric emptying by propulsion of contents in the aboral direction. By contrast, fundic relaxation could lead to delayed emptying of the stomach as the upper stomach would serve as a reservoir for gastric contents.
The effects of test agents were evaluated on strips of canine antrum circular muscles (n=4-8 strips) suspended in organ baths bathed with Krebs solution. Following establishment of baseline tension, acetylcholine (“ACh”; 1 μM), indomethacin (10 μM), or 8-acetyl-3-(4-fluoro-phenyl)-2-(4-methanesulfonyl-phenyl)-imidazo[1,2-a]pyridine (“8-Acetyl- . . . ”; 10 μM) were applied and tension changes monitored and recorded on a polygraph.

[2] = tested on: canine fundic circular muscle; test: Smooth muscle in vitro model: fundic circular muscle strips, tension change; type: cell-based; conditions: test agent 10 μM; n=6-8 strips; FIG. 2
Beagle dogs = test: Dog model of gastric emptying (solid phase, gamma camera); type: in vivo; conditions: po for three days, measured on fourth day after am dosing; cisapride 0.14 mg/kg TID, celecoxib 2.8 mg/kg BID, 8-acetyl compound 1.2 mg/kg BID; FIG. 3
Description: Activity in Vivo: Dog Model of Gastric Emptying
Beagle dogs were treated for three days with test agents (po administration): placebo BID; cisapride 0.14 mg/kg TID; celecoxib 2.8 mg/kg BID; or 8-acetyl-3-(4-fluoro-phenyl)-2-(4-methanesulfonyl-phenyl)-imidazo[1,2-a]pyridine 1.2 mg/kg BID. Solid phase gastric emptying was measured on the fourth day following am dosing. The same three animals were used for evaluation of each agent, thus reducing any interanimal variations.
Isotope-labeled solid food was fed to the dogs for their morning meal and animals were then placed under a gamma camera and scans performed over the 24 to 36 hours.

dogs = test: Dog model of lower esophageal sphincter pressure (LESP); type: in vivo; conditions: 3 days treatment, measured day 4 after am dose; cisapride 0.14 mg/kg TID, celecoxib 1.2 mg/kg BID; compared to placebo; FIG. 4
Description: Activity in Vivo: Dog Model of Lower Esophageal Sphincter Pressure (LESP) Six adult dogs were instrumented with 14 French esophagostomy tubes. Animals were treated for 3 days with placebo (BID), cisapride (0.14 mg/kg TID) or celecoxib (1.2 mg/kg BID). On day 4 dogs received their am dose of test agent and water perfused manometry catheters were inserted through the esophagostomy tubes. Lower esophageal sphincter pressures (LESPs) were then monitored.

Rats = test: Rat model of post-operative ileus (methylene blue meal transit); type: in vivo; conditions: 3 mg/kg intravenous infusion; four hours post-gavage; eight rats; p<0.05; vehicle 49.3 cm
Description: Activity in Vivo: Rat Model of Post Perative Ileus
The selective COX-2 inhibitor 2-(4-ethoxy-phenyl)-3-(4-methanesulfonyl-phenyl)-pyrazolo[1,5-b]pyridazine was evaluated in a rat model of post-operative ileus. The methodology represents a modification of the procedure described by McGill et al, Gastroenterology 116: A1040 (1999).
Rats (fourteen) received 0.5 cc of skimmed milk with methylene blue by gavage. Either vehicle (six rats) or 2-(4-ethoxy-phenyl)-3-(4-methanesulfonyl-phenyl)-pyrazolo[1,5-b]pyridazine (eight rats) was then administered by intravenous infusion. Rats were sacrificed four hours post-gavage and the distance the methylene blue meal traversed the intestine measured. The pylorus was set at 0 cm. With vehicle treatment, the meal traversed 49.3+1.3 cm while with 2-(4-ethoxy-phenyl)-3-(4-methanesulfonyl-phenyl)-pyrazolo[1,5-b]pyridazine (3 mg/kg), the meal traversed 67.8±1.1 cm (p<0.05).

Compound	sensitisation of antral circular muscle to acetylcholine-induced contractions [1]	relaxation / tension change of fundic circular muscle [2]	rate of solid phase gastric emptying (Beagle dogs)	lower esophageal sphincter pressure (LESP) (dogs)	distance the methylene blue meal traversed the intestine (pylorus = 0 cm) (Rats)
COc1ccc2c(c1)c(CC(=O)O)c(C)n2C(=O)c1ccc(Cl)cc1 [indomethacin]	enhanced acetylcholine-induced contractions	near complete relaxation			
COc1cc(N)c(Cl)cc1C(=O)NC1CCN(CCCOc2ccc(F)cc2)CC1OC (stereo not shown) [Cisapride, cisapride]			increased the rate of gastric emptying	increased LESP	
CC(=O)c1cccn2c(-c3ccc(F)cc3)c(-c3ccc(S(C)(=O)=O)cc3)nc12 [8-acetyl-3-(4-fluoro-phenyl)-2-(4-methanesulfonyl-phenyl)-imidazo[1,2-a]pyridine]		only small changes in tension	increased the rate of gastric emptying		
CCOc1ccc(-c2nn3ncccc3c2-c2ccc(S(C)(=O)=O)cc2)cc1 [2-(4-ethoxy-phenyl)-3-(4-methanesulfonyl-phenyl)-pyrazolo[1,5-b]pyridazine]					67.8±1.1 cm

— US20030013717A1, “Use of cox-2 inhibitors for constipation” (priority 2000, published 2003)
